Data: patent EP0052909A1, “Derivative of alfa-mercaptopropionilglicine having therapeutical activity, process for its preparation and related pharmaceutical compositions” (Real S.a.s. di Alberto Reiner & C., priority 1980, dated 1982)
Where a name gives a salt, the structure may show the parent alone.

Tests used:
[1] = Acute toxicity by oral route in the rat; format: in vivo; conditions: rat, in vivo, rat, evaluated ten days after administration
Experimental: (§1) Sprague-Dawley albine rats having an average weight of 120 + 5 g and of both sexes were used.
(§2) For each compound 40 rats were treated. The test compound as a suspension in 5% arabic gum was administered through a gastric probe.
(§3) The results were evaluated ten days after the administration.

[2] = tested on: Sprague-Dawley albine rats; test: Acute toxicity by oral route in the rat; format: in vivo; conditions: evaluated ten days after administration
Experimental: as §1, §2, §3

[3] = tested on: rats of male sex, of the Sprague-Dawley strain; test: Anti-inflammatory activity in the kaolin test; format: in vivo; conditions: rat, 10% suspension of kaolin, diameter of the articulation
Experimental: (§4) The tests used for the evaluation of the anti-inflammatory activity were respectively that of the kaolin and that of the egg white.
a) Anti-inflammatory activity in the kaolin test. For each compound 16 rats of male sex, of the Sprague-Dawley strain and of 200-250 g of body weight, were used. The rats were divided into four groups each comprising four rats. All the animals were injected with a 10% suspension of kaolin. The first group was used as the control, whereas the other three groups were administered with doses respectively of 50,75 and 100 mg/Kg. The measurements of the diameters of the articulation were effected one hour after the kaolin injection and then every 24 hours.
The inoculation of kaolin caused an increase of the tibio-tarsal articulation which has been partially limited by the treatment with the test compound.

[4] = tested on: male rats, of the Sprague-Dawley strain; test: Anti-inflammatory activity in the egg white test; format: in vivo, rat; conditions: two oral doses of 100 mg/Kg with a 30 minute interval, 0,1 ml of egg white in the rear paw, measured 3 and 4 hours later
Experimental: as §4
For each compound 16 male rats, of the Sprague-Dawley strain and weighing 300 g, were used. The animals were divided- in four groups each comprising four rats. The first group served as a control, whereas the other three groups were orally administered, with a 30 minute interval, with two doses of 50,75 and 100 mg/Kg of the test compound.
The last administration was immediately followed by the inoculation of 0,1 ml of egg white in the rear paw of all the animals, including the controls. The measurements of the diameters of the articulations were effected 3 and 4 hours later.

[5] = tested on: female rats; test: Test for possible teratogenic action; format: in vivo, rat; conditions: 50 mg/Kg from the beginning up to the 19-20 day of gestation
Experimental: The subject compound was also tested with respect to a possible teratogenic action, by administering to female rats a dose of 50 mg/Kg from the beginning up to the 19-20 day of gestation.

[6] = Solubility in water; format: physicochemical
[7] = TREATMENT 900 (900 mg/Kg elsewhere in the source), oral by gastric probe

Structure (SMILES): CC(C)Cc1ccc(C(C)C(=O)SC(C)C(=O)NCC(=O)O)cc1 (stereo not shown) [test compound]
- LD50 at 240 h ([1]; po): > 900 mg/kg
- mortality at 240 h [1, 7]: 0%
- dead/living ([2]; TREATMENT 150 (dose unit not given), oral by gastric probe, suspension in 5% arabic gum): 0/8
- dead/living ([2]; TREATMENT 300, oral by gastric probe): 0/8
- dead/living ([2]; TREATMENT 450, oral by gastric probe): 0/8
- dead/living ([2]; TREATMENT 600, oral by gastric probe): 0/8
- dead/living [2, 7]: 0/8
- ANTI-INFLAMMATORY ACTIVITY % ([3]; 75 mg/kg): 10%
- ANTI-INFLAMMATORY ACTIVITY % ([3]; 100 mg/kg): 26%
- ANTI-INFLAMMATORY ACTIVITY % [4]: 26%
- reabsorption number and the foeti in the treated rats with respect to the controls [5]: no significant difference
- weight of the foeti [5]: did not revealed whatsoever anomaly

Structure (SMILES): CC(C)Cc1ccc(C(C)C(=O)SC(C)C(=O)NCC(=O)O)cc1 (stereo not shown) [calcium salt]
- solubility in water [6]: insoluble

Structure (SMILES): CC(C)Cc1ccc(C(C)C(=O)SC(C)C(=O)NCC(=O)O)cc1 (stereo not shown) [magnesium salt]
- solubility in water [6]: insoluble

Structure (SMILES): CC(C)Cc1ccc(C(C)C(=O)SC(C)C(=O)NCC(=O)O)cc1 (stereo not shown) [sodium salt]
- solubility in water [6]: highly soluble in water

Structure (SMILES): CC(C)Cc1ccc(C(C)C(=O)SC(C)C(=O)NCC(=O)O)cc1 (stereo not shown) [potassium salt]
- solubility in water [6]: highly soluble in water
